Source: paper PMC12469269, “Investigating SMR Peptide Interactions with Breast Cancer-Associated Proteins” (International Journal of Molecular Sciences, 2025)
“Also recorded” adds a separate entry of the source.

Key:
Mortalin = assay: SPR competition: SMRwt binding to immobilized Mortalin with Mortalin peptides; design: species or system Human; conditions: 20 µM SMRwt + 20 µM Mortalin peptide, 25 °C, HBS-P pH 7.4
Procedure: Both Vimentin and Mortalin were immobilized as ligands. We used 20 µM of SMRwt alone and 20 µM of Mortalin peptides alone, and their mixtures were used as analytes.
Figure 9 Competitive binding of SMR and Mortalin peptides to Vimentin and Mortalin proteins. Binding of SMRwt to immobilized Vimentin in the presence and absence of (A) Mortalin peptide #56, (B) Mortalin peptide #61, and (C) Mortalin peptide #62. Binding of SMRwt to immobilized Mortalin in the presence and absence of (D) Mortalin peptide #56, (E) Mortalin peptide #61, and (F) Mortalin peptide #62. SMRwt alone, as well as a mixture of His-tagged Mortalin peptides #56, #61, and #62 were injected as analytes to flow over the immobilized ligand surfaces. […] Vimentin and Mortalin proteins were immobilized as ligands on a CM5 sensor chip using standard amine coupling chemistry.
SPR experiments were conducted using a Biacore T200 instrument (Cytiva, Marlborough, MA, USA). CM5 sensor chips (Cytiva) were used to immobilize proteins and run subsequent binding assays at 25 °C. To investigate the direct binding of Nef and SMR peptides to Vimentin and Mortalin and SMR competition studies, both proteins were immobilized as ligands on the active flow cells (FCs) using standard amine coupling chemistry. […] Sensorgrams recorded for kinetics analyses were fitted to a 1:1 binding model using the Biacore T200 evaluation software version 3.2.1. […]

[1] = tested on: exNef-GFP secretion in MDA-MB-231, MCF-7, BT474 BC cells and Jurkat T cells; assay: Nef-driven exNef-GFP secretion (Figure 3), three BC cell lines and Jurkat T cells; assay type: cell-based, human
Procedure: Figure 3 Effects of Mortalin-derived peptides on viral Nef-driven exNef secretion. (A) MDA-MB-231, (B) MCF-7, (C) BT474 BC cells, and (D) Jurkat T cells were co-transfected with 1 µg of wild-type Nef-GFP clone and 200 ng of various Mortalin-scanning peptides. The cells were then placed in a 24-well plate and incubated at 37 °C for 24 h before being assayed for extracellular vesicle secretion. Cells were also co-transfected with SMRwt or SMRmut peptides as positive and negative controls, respectively. The amount of GFP fluorescence measured was equivalent to the amount of exNef-GFP in the extracellular media. […] The bar graphs display relative levels of exosome release. In here, asterisks (* p < 0.05, ** p < 0.005, *** p < 0.0005, and **** p < 0.00005) are used to indicate levels of statistical significance. The more asterisks, the stronger the statistical significance. Data represents the mean ± SD from three independent experiments.
Co-transfections of cells with peptides were carried out using Lipofectamine Reagent (Fisher Scientific), following the manufacturer’s protocol. One day prior to transfection, cells were trypsinized and plated at a density of 6.25 × 10^5 cells per well in 2 mL of complete growth medium. […] The cell transfection efficiency was calculated by counting the green, fluorescent cells using a fluorescence microscope.

Q: What does the source list for “DQLPADECNKLKEEISKMRE [#61, Mortalin scanning peptide 61]”?
A: inhibition of SMRwt–Mortalin binding, in words (Mortalin; listed as Mortalin #61): effectively compete with SMRwt to block its interaction with the Mortalin or Vimentin protein; inhibition of SMRwt–Mortalin binding, in words (Mortalin; listed as Mortalin peptide #61): inhibited SMRwt binding to both Mortalin and Vimentin; also recorded: completely blocks the 20 µM SMRwt from binding to both Vimentin and Mortalin; also recorded: complete inhibition; effect on Nef function (exNef-GFP secretion), in words ([1]; 1 µg Nef-GFP + 200 ng peptide, co-transfected, 37 °C, 24 h, GFP fluorescence, three independent experiments): significant reduction in exNef-GFP secretion; also recorded: inhibit Nef function; interaction with NefSMR domain / Nef / SMRwt peptide, in words ([1]; inferred from exNef secretion (Figures 2 and 3)): bind HIV-1 Nef and the SMRwt peptide; also recorded: can interact with the NefSMR domain; also recorded: bound the SMR domain and effectively inhibited Nef activity
